{"source": "patent US20140193910A1", "about": "“METHODS FOR PRODUCING PANCREATIC PRECURSOR CELLS AND USES THEREOF” (priority 2011, published 2014)", "format_in_all_cases": "cell-based", "key": {"[1]": {"test_system": "human pancreatic stem cells", "experiment": "Cell clones from second digestion of pancreas tissue, DMEM-10% DFBS + GrNP supplementation", "details": "for #clones after 1 passage, Method 1 / #clones after 1 passage, Method 2: 1 mM supplement, second digestion; for Enhancement of clonal cell proliferation: Method 1 and Method 2", "procedure": "(§1) More specifically, after mincing of intact pancreatic tissue (harvested by the National Disease Research Interchange from donors within 4 hours of death), the pancreatic tissue was digested with liberase H (Roche). Two successive digestions of 20 and 30 minutes were performed at 37° C. in serum-free Dulbecco's modified Eagle's medium (DMEM) containing 1 mg/mL LIBERASE H. The cells and cell clusters released after each of these digestions were cultured.\nIn one embodiment of the methods described herein, termed herein as “Method 1,” twice digested pancreas digestion products can be cultured in DMEM supplemented with 10% dialyzed fetal bovine serum (DFBS).\n(§2) In another embodiment of the methods described herein, termed herein as “Method 2,” the same two successive digestion procedure can be used, but the final tissue fragments remaining after the second digestion can also be cultured independently. For this embodiment of the methods, CMRL-1066 medium can be used as a second base culture medium in parallel with DMEM for all cultured pancreatic cell and tissue preparations. In one such example of Method 2, CMRL-1066 medium was supplemented with 10% DFBS and 2 mM L-glutamine and subdivided for the same GrNP supplementations as indicated for DMEM-10% DFBS medium in Method 1."}, "[2]": {"test_system": "human pancreatic stem cells", "experiment": "Cell clones from twice-digested fragments of pancreas tissue, CMRL-1066-10% DFBS + GrNP supplementation", "details": "for Clone expansion rate (percent of isolated clones that could be expanded to full cultures) / #clones after 1 passage, Method 2: 1 mM supplement; for Clone expansion rate (percent of isolated clones that could be expanded to full cultures) / #clones after 1 passage, Method 2 / Increase in number of clones (primary cell colonies) over control: CMRL-1066-10% DFBS; for #clones after 1 passage, Method 2: twice-digested tissue fragments; for Increase in number of clones (primary cell colonies) over control: Method 2; for Increase in proportion of clones that could be further expanded to full cultures: CMRL-1066 medium, tissue fragments, versus control", "procedure": "as §1, §2\nAccordingly, in some embodiments of the methods described herein, the culture medium comprise Xn, Xs, or a combination thereof."}, "[3]": {"test_system": "human pancreatic stem cells", "experiment": "Population doubling analysis of pooled polyclonal strains (Method 2, CMRL-1066)", "procedure": "Growth properties of human pancreatic stem cell strains. Four weeks after replating, clones were picked and expanded. Cells left after clonal isolations from the CMRL-1066 conditions were pooled and grown. They were trypsinized and counted on a regular basis, and population doublings were calculated accordingly. The number of clones detected for each condition is represented on the top two histograms. The bottom histogram represents the percentage of harvested clones that continued their expansion after isolation.\nAfter isolating clonal cell colonies produced by the embodiment of the methods described herein termed Method 2 (Table 2) for expansion, the remaining unselected cell clones were pooled and expanded as well (i.e., polyclonal strains). Population doubling analyses were performed based on the passage of the expansion pool cultures."}}, "data": [{"smiles": "O=c1[nH]cnc2nc[nH]c12", "note": "[Hx, hypoxanthine]", "values": [{"measurement": "#clones after 1 passage, Method 1", "setting": "[1]", "value": 22}, {"measurement": "#clones after 1 passage, Method 2", "setting": "[1]", "value": 13}, {"measurement": "Enhancement of clonal cell proliferation", "setting": "[1]", "value": "more effective in enhancing clonal cell proliferation than Xn"}]}, {"smiles": "O=c1[nH]c(=O)c2[nH]cnc2[nH]1", "note": "[Xn, xanthine]", "values": [{"measurement": "#clones after 1 passage, Method 1", "setting": "[1]", "value": 3}, {"measurement": "#clones after 1 passage, Method 2", "setting": "[1]", "value": 5}, {"measurement": "Enhancement of clonal cell proliferation", "setting": "[1]", "value": "not statistically different than control"}, {"measurement": "Clone expansion rate (percent of isolated clones that could be expanded to full cultures)", "setting": "[2]", "value": 13, "unit": "%"}, {"measurement": "#clones after 1 passage, Method 2", "setting": "[2]", "value": 54}, {"measurement": "Increase in number of clones (primary cell colonies) over control", "setting": "[2]", "value": "approximately 50%"}, {"measurement": "Increase in proportion of clones that could be further expanded to full cultures", "setting": "[2]", "value": 3.4, "unit": "fold"}, {"measurement": "Cell expansion corresponding to the population doublings", "setting": "[3]; polyclonal strains", "value": "~1e+06", "unit": "fold"}, {"measurement": "Population doublings of polyclonal strains", "setting": "[3]; supplemented medium, expansion pool cultures", "value": 20, "unit": "population doublings"}]}, {"smiles": "O=c1[nH]c(=O)c2ncn([C@@H]3O[C@H](CO)[C@@H](O)[C@H]3O)c2[nH]1", "note": "[Xs, xanthosine]", "values": [{"measurement": "#clones after 1 passage, Method 1", "setting": "[1]", "value": 13}, {"measurement": "#clones after 1 passage, Method 2", "setting": "[1]", "value": 12}, {"measurement": "Enhancement of clonal cell proliferation", "setting": "[1]", "value": "more effective in enhancing clonal cell proliferation than Xn"}, {"measurement": "Clone expansion rate (percent of isolated clones that could be expanded to full cultures)", "setting": "[2]", "value": 10, "unit": "%"}, {"measurement": "#clones after 1 passage, Method 2", "setting": "[2]", "value": 59}, {"measurement": "Increase in number of clones (primary cell colonies) over control", "setting": "[2]", "value": "approximately 50%"}, {"measurement": "Increase in proportion of clones that could be further expanded to full cultures", "setting": "[2]", "value": 2.6, "unit": "fold"}]}]}
